BindingDB's records for doi:10.1016/s0960-894x(99)00237-1 (Warner-Lambert, 1999)

Tests used:
[1] = molecular target: T1, Human immunodeficiency virus type 1 protease (Human immunodeficiency virus 1, UniProt Q72874); test: In vitro binding affinity against HIV protease at pH 6.2.
[2] = molecular target: T1, Human immunodeficiency virus type 1 protease; test: ChEBML_157707; settings: pH 6.2
Description: In vitro binding affinity against HIV protease at pH 6.2 was determined

[3] = molecular target: T1, Human immunodeficiency virus type 1 protease; test: Binding affinity towards HIV protease was determined

IC50 [1] | Ki [2] | Ki [3] | Structure (SMILES)
11 nM | – | – | Cc1cc(SC2C(=O)CC(CCc3ccc(O)cc3)(C(C)C)OC2=O)c(C(C)(C)C)cc1N(C)C (configuration not stated) [3-(2-tert-Butyl-4-dimethylamino-5-methyl-phenylsulfanyl)-4-hydroxy-6-[2-(4-hydroxy-phenyl)-ethyl]-6-isopropyl-5,6-dihydro-pyran-2-one]
11 nM | – | – | Cc1cc(SC2C(=O)CC(CCc3ccccc3)(c3ccccc3)OC2=O)c(C(C)(C)C)cc1N (configuration not stated) [3-(4-Amino-2-tert-butyl-5-methyl-phenylsulfanyl)-4-hydroxy-6-phenethyl-6-phenyl-5,6-dihydro-pyran-2-one]
– | 0.07 nM | 0.07 nM | Cc1cc(SC2C(=O)C[C@@](CCc3ccc(O)cc3)(C(C)C)OC2=O)c(C(C)(C)C)cc1N (stereo partly drawn) [(6S)-3-[(4-amino-2-tert-butyl-5-methylphenyl)sulfanyl]-4-hydroxy-6-[2-(4-hydroxyphenyl)ethyl]-6-(propan-2-yl)-5,6-dihydro-2H-pyran-2-one]
13 nM | – | – | Cc1cc(SC2C(=O)CC(CCc3ccc(O)cc3)(C(C)C)OC2=O)c(C(C)(C)C)cc1NC(=O)c1ccccc1 (configuration not stated) [N-(5-tert-Butyl-4-{4-hydroxy-6-[2-(4-hydroxy-phenyl)-ethyl]-6-isopropyl-2-oxo-5,6-dihydro-2H-pyran-3-ylsulfanyl}-2-methyl-phenyl)-benzamide]
5.1 nM | – | – | Cc1cc(SC2C(=O)CC(CCc3ccc(O)cc3)(C(C)C)OC2=O)c(C(C)(C)C)cc1NC(=O)c1ccncc1 (configuration not stated) [N-(5-tert-Butyl-4-{4-hydroxy-6-[2-(4-hydroxy-phenyl)-ethyl]-6-isopropyl-2-oxo-5,6-dihydro-2H-pyran-3-ylsulfanyl}-2-methyl-phenyl)-isonicotinamide]
5.1 nM | – | – | Cc1cc(SC2C(=O)CC(CCc3ccc(O)cc3)(C(C)C)OC2=O)c(C(C)(C)C)cc1NC(=O)c1cccnc1 (configuration not stated) [N-(5-tert-Butyl-4-{4-hydroxy-6-[2-(4-hydroxy-phenyl)-ethyl]-6-isopropyl-2-oxo-5,6-dihydro-2H-pyran-3-ylsulfanyl}-2-methyl-phenyl)-nicotinamide]
